From article PMC12771125, “Compounds Reducing Human Sperm Motility as Potential Nonhormonal Contraceptives Identified Using a High-Throughput Phenotypic Screening Platform” (ACS Omega, 2025)
Values after ≈ are worked out from the molar mass of the structure shown. Where two headings read alike, the source gives them in different places.

Key:
human sperm = experiment: Reduction of sperm motility (RSM) high-throughput phenotypic assay; assay type: cell-based; settings: for EC50: Homo sapiens, reduction of progressive sperm motility relative to control
Protocol: Using our previously established phenotypic human sperm motility screening platform, we screened a large subset (62,621 compounds) of one of our in-house diversity libraries (National Phenotypic Screening Centre (NPSC) Diversity Set) (Figure A,B). Briefly, human sperm are collected, isolated from semen, distributed into 384-well plates with test compounds, time-lapse images of sperm movement are recorded using a high-content imager, and progressive motility parameters are calculated using custom data analysis software. Sperm motility is complicated, and the mechanisms underpinning its regulation are not fully understood. Progressive motility, which is a measurement of the movement of forward progression of sperm, is most closely linked to sperm quality, and the percentage of progressively motile sperm compared to control is therefore the parameter utilized during the work described in this paper. […]
We used an HTS screening platform to assess the motility of live human spermatozoa. The platform and its development are described in detail in Gruber et al. , and summarized below in brief. The platform was used to screen compound libraries specifically focusing on reduction in motility. Interesting compounds were examined in further detail as possible starting points for a medicinal chemistry program. The experimental design is illustrated in Figure .
Donors were local to the Dundee area, over the age of 18, and had no known fertility problems and normal sperm concentration, motility and semen characteristics according to WHO 2021 criteria. Special category personal data for donors, such as ethnic origin, was not recorded in accordance with ethical approval and UK GDPR. Samples were obtained by masturbation, after sexual abstinence of 2–5 days, and delivered to the research laboratory within one h of production. Samples were allowed to liquefy at 37 °C for 15–30 min prior to preparation by discontinuous density gradient centrifugation (DGC). […] A minimum of 3 prepared donor samples were routinely pooled to reduce donor-to-donor variability for primary screening assays. Pooled samples were incubated for 3 h at 37 °C under noncapacitating conditions.
In brief, screening batches of cells were transferred to a robotic platform (HighRes Biosolutions Inc.) and maintained during the screen at 37 °C at 5% CO2. Assay-ready 384-well plates containing compounds were prepared prior to the screen and filled with approximately 10,000 spermatozoa (20 μL) per well using a liquid handling system (MultiDrop Combi; ThermoFisher). These plates were incubated for 10 min prior to imaging. The HTS system utilized a Yokogawa CV7000 Cell Voyager high-throughput microscope to record time-lapse images from 2 positions in each well. An adaptation of a tracking algorithm, Trackpy v0.4.1 was utilized to track individual spermatozoa within each well and obtain kinematic parameters. Within the compound-test plates, DMSO was used as the vehicle control.
All steps were performed as previously described. , In summary, data from every compound well were normalized to those from in-plate DMSO controls (wells containing the same amount of DMSO as compound wells). Two positions were recorded in every well, and the average of those positions was used for calculating % of control (median value/DMSO median) × 100. Each plate contained 16 DMSO control wells. Median curvilinear velocity (VCL) was used as the primary readout for the NPSC Diversity Set screened at 6 μM, and percentage progressive motility (PM) was used for all other libraries screened. Hits from the primary screening were chosen based on the % change compared to the control. In these experiments, an RSM of ≥20% compared to negative controls (DMSO) was chosen as a cutoff for potential progression.
In a screening program of this scale, a significant number of compounds are likely to have a negative effect on sperm motility, but a number will show general toxicity. […]

HepG2 cells = experiment: HepG2 cytotoxicity assay (resazurin, 72 h); assay type: cell-based, human; settings: Homo sapiens, HepG2, 72 h; read-out: HepG2 pEC50 (converted)
Excerpt: Our overarching aims for investigating our chemical series and deciding which ones had the potential for further progression were to achieve adequate potency in our motility assay, suitable solubility, and minimal cytotoxicity in HepG2 cells. This third point was often the most challenging, as multiple series had cytotoxicity in HepG2 cells. This observation is perhaps not surprising; many potential targets in sperm cells can also be found in somatic cells. Our cytotoxicity assay is run with an incubation time of 72 h, to give time for gross cytotoxic effects to become apparent.
Compound dilution curves were plated directly using a Labcyte Echo 550 acoustic dispenser (125 nL) in 384-well white clear-bottom plates (Greiner). HepG2 cells (ATCCHepG2 HB-8065) were cultured in minimum essential medium (supplemented with glutamax) with 10% FCS and plated (25 μL) using a WellMate dispenser ([…]) and incubated for 72 h. Doxorubicin was used as a positive control drug. Resazurin was then added to each well at a final concentration of 45 μM, and fluorescence was measured using a PHERAstar LS (BMG Labtech) after 4 h of further incubation (excitation of 528 nm and emission of 590 nm). Raw data were normalized to controls and expressed as % growth.
Figure S2: Concentration-response curves from high throughput HepG2 viability assay. Each compound was tested in duplicate and the curves of each replicate are shown. The reported values in the tables are an average of the 2 pEC50 values obtained. […]
determine 0% effect, positive control used to determine 100% effect).
Hit compounds 1a, 6b and 7a were repurchased from commercial suppliers including enamine and […]

Aqueous solubility = assay type: physicochemical
[1] = 10 min, 10 min incubation, reported <X (neg. log of top concentration) if largest reduction <70%, read-out: RSM pEC50 10 mins (converted)
[2] = 3 h incubation, reported <X if largest reduction <70%, read-out: RSM pEC50 3 hrs (converted)
[3] = 6 h incubation, reported <X if largest reduction <70%, read-out: RSM pEC50 6 hrs (converted)

| SMILES | EC50 (human sperm; [1]) | EC50 (human sperm; [2]) | EC50 (human sperm; [3]) | EC50 (HepG2 cells) | solubility (Aqueous solubility) | difference between pEC50 in the sperm motility assay and pEC50 in the HepG2 cytotoxicity assay (human sperm) |
| --- | --- | --- | --- | --- | --- | --- |
| CC(C)c1csc(NC(=O)Nc2ccc(F)cc2F)n1 [Compound 3g] | > 31.6 µM | > 31.6 µM | > 31.6 µM | > 100 µM | 0.89 µM (≈ 0.265 µg/mL) |  |
| O=C(Nc1ccc(OCc2ccccc2)cc1)c1ccccc1Cl [Compound 1k] | > 20 µM |  |  | > 100 µM | 0.64 µM (≈ 0.216 µg/mL) |  |
| O=C(Nc1nc(-c2ccccn2)cs1)NC1CCOCC1 [Compound 3i] | > 31.6 µM | > 31.6 µM | > 31.6 µM | > 100 µM | 220 µM (≈ 67 µg/mL) |  |
| c1ccc2c(N3CCCCC3)cc(N3CCCCC3)nc2c1 [Compound 7e] | > 31.6 µM | > 31.6 µM | > 31.6 µM | > 100 µM | 8.1 µM (≈ 2.39 µg/mL) |  |
| Nc1nc2c(Cl)c(Cl)ccc2s1 [Compound 4b] | > 31.6 µM | > 31.6 µM | > 31.6 µM | 50.1 µM | 60 µM (≈ 13.1 µg/mL) |  |
| c1cncc(-c2cc(N3CCCCC3)c3ccccc3n2)c1 [Compound 7c] | > 31.6 µM | > 31.6 µM | > 31.6 µM | > 100 µM | 57 µM (≈ 16.5 µg/mL) |  |
| COc1ccc(Nc2ccnc3cc(Cl)ccc23)cc1 [Compound 5g] | > 31.6 µM | > 31.6 µM | > 31.6 µM | > 100 µM | 4.9 µM (≈ 1.4 µg/mL) |  |
| c1ccc2c(N3CCCCC3)cc(N3CCCC3)nc2c1 [Compound 7f] | > 31.6 µM | > 31.6 µM | > 31.6 µM | 50.1 µM | 220 µM (≈ 61.9 µg/mL) |  |
| N#Cc1ccc(NC(=O)c2cc(Cl)ccc2O)cc1F [Compound 1d] | 2.51 µM |  |  | 6.31 µM | 35 µM (≈ 10.2 µg/mL) |  |
| N#Cc1ccc(NC(=O)c2cc(Cl)ccc2O)cn1 [Compound 1h] | > 20 µM |  |  | 20 µM | 100 µM (≈ 27.4 µg/mL) |  |
| CC(C)NC(=O)Nc1nc(-c2ccccn2)cs1 [Compound 3j] | > 31.6 µM | > 31.6 µM | > 31.6 µM | > 100 µM | 140 µM (≈ 36.7 µg/mL) |  |
| Cc1cc(NC(=O)c2cc(Cl)ccc2O)ccc1C#N [Compound 1c] | 3.98 µM |  |  | 25.1 µM | 60 µM (≈ 17.2 µg/mL) |  |
| O=C(Nc1ccc([N+](=O)[O-])cc1Cl)c1cc(Cl)ccc1O [Compound 1a, Niclosamide, reference compound] | 1 µM |  |  | 3.16 µM | 4.5 µM (≈ 1.47 µg/mL) | 0.5 log units |
| NC(=O)Nc1nc2c(Cl)c(Cl)ccc2s1 [Compound 4h] | > 31.6 µM | > 31.6 µM | > 31.6 µM | 63.1 µM | 190 µM (≈ 49.8 µg/mL) |  |
| O=C(Nc1nc(-c2ccccn2)cs1)NC1CCNCC1 [Compound 3k] | > 31.6 µM | > 31.6 µM | > 31.6 µM | > 100 µM | 130 µM (≈ 39.4 µg/mL) |  |
| O=C(Nc1cccc(Cl)c1)c1cc(Cl)ccc1O [Compound 1f] | 5.01 µM |  |  | 6.31 µM | 4.1 µM (≈ 1.16 µg/mL) |  |
| Clc1ccc2c(Nc3ccc4[nH]ccc4c3)ccnc2c1 [Compound 5k] | > 31.6 µM | > 31.6 µM | > 31.6 µM | 12.6 µM | 11 µM (≈ 3.23 µg/mL) |  |
| Cc1cc(Nc2ccccc2)n(-c2ccccc2)n1 [Compound 6c] | > 31.6 µM | > 31.6 µM | > 31.6 µM | > 100 µM | 81 µM (≈ 20.2 µg/mL) |  |
| c1ccc(-c2cc(N3CCCCC3)c3ccccc3n2)cc1 [Compound 7b] | > 31.6 µM | > 31.6 µM | > 31.6 µM | > 100 µM | 0.6 µM (≈ 0.173 µg/mL) |  |
| NCCN(C(=O)c1ccc(Cl)cc1Cl)c1ccc(OCc2ccc(Cl)cc2)cc1 [Compound 1b, N-(2-Aminoethyl)-2,4-dichloro-N-(4-((4-chlorobenzyl)oxy)phenyl)benzamide] | 12.6 µM | 20 µM | 10 µM | 5.01 µM | 53 µM (≈ 23.8 µg/mL) |  |
